Results published in the supplement of paper PMC10331698.
± gives the standard deviation of the averaged measurements.

Compound: CN(C(=O)C(F)(F)C(F)(F)C(F)(F)F)[Si](C)(C)C [N-Methyl-N-trimethylsilylheptafluorobutyramide] (in DMSO)
Assay: level (log10 ratio to DMSO vehicle control); higher = higher biomarker level / cell amount than vehicle control
Procedure: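 BioMAP Diversity Plus panel of 12 human primary cell co-culture systems (3C, 4H, LPS, SAg, BT, BF4T, BE3C, CASM3C, HDF3CGF, KF3CT, MyoF, Mphg). Compounds were added 1 h before stimulation and left for 24 h (MyoF 48 h; BT 72 h for soluble read-outs or 6 d for IgG). Biomarkers were read by ELISA, cytotoxicity by SRB, PBMC viability and proliferation by Alamar Blue. Each well value was divided by the mean of 8 DMSO control wells on the same plate and log10 transformed; duplicate blinded samples were tested at 4 concentrations.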

| Test System | level (log10) (6700 nM) | level (log10) (20000 nM) | level (log10) (60000 nM) |
| --- | --- | --- | --- |
| MyoF:Collagen I | 0.0025 ± 0.019 | 0.007 ± 0.023 | 0.01 ± 0.0057 |
| HDF3CGF:Proliferation 72hr | 0.0075 ± 0.013 | 0.052 ± 0.042 | 0.0225 ± 0.011 |
| 3C:CD142/Tissue Factor | 0.0195 ± 0.044 | 0.02 ± 0.013 | 0.026 ± 0.033 |
| HDF3CGF:MMP-1 | -0.0195 ± 0.016 | -0.015 ± 0.014 | -0.008 ± 0.045 |
| MyoF:Collagen III | 0.006 ± 0.0028 | 0.007 ± 0.0028 | -0.003 ± 0.0085 |
| KF3CT:uPA | -0.0045 ± 0.019 | 0.0135 ± 0.005 | 0.0115 ± 0.0078 |
| CASM3C:Serum Amyloid A | -0.018 ± 0.0099 | -0.0275 ± 0.025 | 0.013 ± 0.082 |
| lMphg:CCL2/MCP-1 | -0.023 ± 0.0085 | -0.019 ± 0.0028 | 0.002 ± 0.034 |
| CASM3C:CXCL8/IL-8 | -0.006 | -0.006 ± 0.0028 | 0.008 ± 0.0042 |
| HDF3CGF:SRB | -0.048 ± 0.0028 | -0.0015 ± 0.056 | 0.0205 ± 0.086 |
| KF3CT:CCL2/MCP-1 | -0.0175 ± 0.0092 | -0.0305 ± 0.021 | 0.0205 ± 0.056 |
| BE3C:MMP-9 | -0.023 ± 0.0042 | -0.012 ± 0.0085 | 0.015 ± 0.02 |
| CASM3C:SRB | -0.001 ± 0.0042 | 0.0085 ± 0.012 | -0.002 ± 0.011 |
| HDF3CGF:CCL2/MCP-1 | -0.032 ± 0.0085 | -0.0245 ± 0.0078 | -0.0205 ± 0.028 |
| CASM3C:HLA-DR | -0.0175 ± 0.0021 | -0.0105 ± 0.012 | 0.013 ± 0.011 |
| KF3CT:CD54/ICAM-1 | -0.001 ± 0.0028 | -0.0045 ± 0.0092 | -0.0065 ± 0.013 |
| KF3CT:MMP-9 | -0.0235 ± 0.005 | -0.0115 ± 0.033 | 0.0055 ± 0.00071 |
| 3C:CD141/Thrombomodulin | -0.024 ± 0.016 | -0.022 ± 0.014 | -0.0115 ± 0.0092 |
| lMphg:CD62E/E-Selectin | -0.0115 ± 0.00071 | 0.0015 ± 0.0021 | 0.0065 ± 0.0021 |
| HDF3CGF:CXCL10/IP-10 | 0.0155 ± 0.00071 | 0.0165 ± 0.013 | 0.005 ± 0.0028 |

| Test System | level (log10) (6700 nM) | level (log10) (20000 nM) | level (log10) (60000 nM) |
| --- | --- | --- | --- |
| lMphg:SRB | -0.0015 ± 0.005 | 0 ± 0.0099 | 0.003 ± 0.0014 |
| KF3CT:CXCL9/MIG | -0.0035 ± 0.0092 | -0.0125 ± 0.0092 | 0.003 ± 0.0071 |
| MyoF:SRB | 0.0035 ± 0.012 | 0.0035 ± 0.0035 | 0.0055 ± 0.0035 |
| HDF3CGF:CXCL9/MIG | -0.0105 ± 0.0035 | -0.004 ± 0.0057 | -0.009 ± 0.018 |
| MyoF:bFGF | 0.0025 ± 0.0078 | 0.012 ± 0.0042 | 0.0125 ± 0.012 |
| 3C:CD62E/E-Selectin | -0.0115 ± 0.015 | -0.007 ± 0.0042 | 0.0015 ± 0.037 |
| HDF3CGF:Collagen III | 0.0005 ± 0.00071 | -0.0175 ± 0.005 | -0.0675 ± 0.037 |
| BE3C:MMP-1 | -0.0015 ± 0.011 | -0.02 ± 0.0071 | 0.0295 ± 0.033 |
| BE3C:uPA | 0.0045 ± 0.032 | -0.0105 ± 0.026 | 0.015 ± 0.0071 |
| lMphg:sIL-10 | -0.006 ± 0.061 | -0.135 ± 0.1 | -0.0905 ± 0.043 |
| CASM3C:CCL2/MCP-1 | -0.0115 ± 0.0064 | -0.001 ± 0.02 | 0.0165 ± 0.013 |
| KF3CT:SRB | -0.004 ± 0.0014 | -0.0095 ± 0.015 | -0.003 ± 0.013 |
| HDF3CGF:CXCL11/I-TAC | -0.0135 ± 0.0035 | -0.015 ± 0.0099 | -0.03 |
| 3C:CD54/ICAM-1 | -0.0045 ± 0.022 | -0.014 ± 0.0042 | 0.015 ± 0.011 |
| MyoF:CXCL8/IL-8 | 0.0005 ± 0.025 | 0.003 ± 0.0042 | 0.009 ± 0.027 |
| CASM3C:CXCL9/MIG | -0.0095 ± 0.005 | -0.0065 ± 0.015 | 0.008 ± 0.03 |
| CASM3C:CD87/uPAR | -0.016 ± 0.042 | -0.028 ± 0.025 | -0.012 ± 0.0057 |
| 3C:CD106/VCAM-1 | -0.0245 ± 0.0021 | -0.01 ± 0.016 | 0.0025 ± 0.012 |
| CASM3C:Proliferation | -0.017 ± 0.03 | -0.0095 ± 0.00071 | 0.039 ± 0.033 |
| CASM3C:PAI-I | 0.0015 ± 0.021 | -0.003 ± 0.0071 | 0.0005 ± 0.0078 |
